Measured values reported in PubChem BioAssay (NCI).
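GI50: concentration for 50% inhibition of growth. TGI is the concentration that stops growth completely.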

Legend:
Assay in all cases: NCI tumour cell line growth inhibition, 384-well format
COLO 205 colon = test system: COLO 205 colon
UO-31 renal = test system: UO-31 renal
HOP-92 NSCLC = test system: HOP-92 NSCLC
LOX IMVI melanoma = test system: LOX IMVI melanoma
NCI-H23 lung = test system: NCI-H23 lung
SN12C renal = test system: SN12C renal
HCC-2998 colon = test system: HCC-2998 colon
K-562 leukemia = test system: K-562 leukemia
HOP-62 NSCLC = test system: HOP-62 NSCLC
SNB-75 CNS = test system: SNB-75 CNS
A498 renal = test system: A498 renal
HL-60(TB) leukemia = test system: HL-60(TB) leukemia
SK-MEL-28 melanoma = test system: SK-MEL-28 melanoma
RXF 393 renal = test system: RXF 393 renal
PC-3 prostate = test system: PC-3 prostate
SF-295 CNS = test system: SF-295 CNS
CCRF-CEM leukemia = test system: CCRF-CEM leukemia
UACC-62 melanoma = test system: UACC-62 melanoma
TK-10 renal = test system: TK-10 renal
NCI-H226 lung = test system: NCI-H226 lung
HCT-116 colon = test system: HCT-116 colon
OVCAR-4 ovarian = test system: OVCAR-4 ovarian
T-47D breast = test system: T-47D breast
RPMI-8226 leukemia = test system: RPMI-8226 leukemia
KM12 colon = test system: KM12 colon
NCI-H522 lung = test system: NCI-H522 lung
IGROV1 ovarian = test system: IGROV1 ovarian
SNB-19 CNS = test system: SNB-19 CNS
UACC-257 melanoma = test system: UACC-257 melanoma

In the case of `C[C@H](Nc1ncnc2nc[nH]c12)c1cc2ccc(F)cc2nc1-c1ccccn1`, the GI50 (COLO 205 colon) was > 100 µM, the TGI (COLO 205 colon) was > 100 µM and the GI50 (UO-31 renal) was 49.9 µM. The TGI (UO-31 renal) was > 100 µM, the GI50 (HOP-92 NSCLC) was 12.7 µM and the TGI (HOP-92 NSCLC) was > 100 µM. The GI50 (LOX IMVI melanoma) was > 100 µM, the TGI (LOX IMVI melanoma) was > 100 µM and the GI50 (NCI-H23 lung) was > 100 µM. The TGI (NCI-H23 lung) was > 100 µM, the GI50 (SN12C renal) was 12.4 µM and the TGI (SN12C renal) was > 100 µM. For the same compound, the GI50 (HCC-2998 colon) was > 100 µM, the TGI (HCC-2998 colon) was > 100 µM and the GI50 (K-562 leukemia) was > 100 µM. For the same compound, the TGI (K-562 leukemia) was > 100 µM, the GI50 (HOP-62 NSCLC) was > 100 µM and the TGI (HOP-62 NSCLC) was > 100 µM. The GI50 (SNB-75 CNS) was 24.3 µM, the TGI (SNB-75 CNS) was > 100 µM and the GI50 (A498 renal) was 17.5 µM. The TGI (A498 renal) was > 100 µM, the GI50 (HL-60(TB) leukemia) was 3.53 µM and the TGI (HL-60(TB) leukemia) was 24.3 µM. For the same compound, the GI50 (SK-MEL-28 melanoma) was > 100 µM, the TGI (SK-MEL-28 melanoma) was > 100 µM and the GI50 (RXF 393 renal) was 12.6 µM. The TGI (RXF 393 renal) was > 100 µM, the GI50 (PC-3 prostate) was 18.2 µM and the TGI (PC-3 prostate) was > 100 µM. The GI50 (SF-295 CNS) was 29.4 µM, the TGI (SF-295 CNS) was > 100 µM and the GI50 (CCRF-CEM leukemia) was 11 µM. For the same compound, the TGI (CCRF-CEM leukemia) was > 100 µM, the GI50 (UACC-62 melanoma) was 29.2 µM and the TGI (UACC-62 melanoma) was > 100 µM. The GI50 (TK-10 renal) was > 100 µM, the TGI (TK-10 renal) was > 100 µM and the GI50 (NCI-H226 lung) was 35.7 µM. The TGI (NCI-H226 lung) was > 100 µM, the GI50 (HCT-116 colon) was > 100 µM and the TGI (HCT-116 colon) was > 100 µM. The GI50 (OVCAR-4 ovarian) was > 100 µM, the TGI (OVCAR-4 ovarian) was > 100 µM and the GI50 (T-47D breast) was 31.2 µM. For the same compound, the TGI (T-47D breast) was > 100 µM, the GI50 (RPMI-8226 leukemia) was 22.4 µM and the TGI (RPMI-8226 leukemia) was > 100 µM. For the same compound, the GI50 (KM12 colon) was > 100 µM, the TGI (KM12 colon) was > 100 µM and the GI50 (NCI-H522 lung) was 67.4 µM. The TGI (NCI-H522 lung) was > 100 µM, the GI50 (IGROV1 ovarian) was 21.2 µM and the TGI (IGROV1 ovarian) was 93.2 µM. For the same compound, the GI50 (SNB-19 CNS) was > 100 µM, the TGI (SNB-19 CNS) was > 100 µM and the GI50 (UACC-257 melanoma) was > 100 µM. For the same compound, the TGI (UACC-257 melanoma) was > 100 µM.
